Source: patent publication US20210045385A1, “PYRIDAZINONE-SUBSTITUTED KETOXIMES AS HERBICIDES” (FMC Corporation, priority 2018, published 2021)

Legend:
Assay type in all cases: in vivo
[1] = tested on: ducksalad (Heteranhera limosa); assay: Test B flooded paddy test, visual plant response rating; conditions: 250 g ai/ha, Flood, applied to paddy water, 2-leaf stage, evaluated after 13 to 15 days
Outline: (§1)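 Seedlings at 2 leaves; compound into paddy water (3 cm flood, maintained); 13–15 d greenhouse; visual score relative to controls.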

[2] = tested on: rice (Oryza sativa); assay: as above; conditions: 250 g ai/ha, Flood, applied to paddy water, 2-leaf stage, evaluated after 13 to 15 days
Outline: as §1

[3] = tested on: barnyardgrass (Echinochloa crus-galli); assay: as above; conditions: 250 g ai/ha, Flood, applied to paddy water, 2-leaf stage, evaluated after 13 to 15 days
Outline: as §1

[4] = tested on: sedge, umbrella (small-flower umbrella sedge, Cyperus difformis); assay: as above; conditions: 250 g ai/ha, Flood, applied to paddy water, 2-leaf stage, evaluated after 13 to 15 days
Outline: as §1

[5] = tested on: kochia (Kochia scoparia); assay: Test A preemergence, visual plant response rating; conditions: for Kochia plant response rating: 125 g ai/ha, preemergence, 0 to 100 scale, 0 no effect, 100 complete control; for Kochia plant response rating (0 to 100 scale): 500 g ai/ha Preemergence, approx. 10 days
Outline: (§2)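 Greenhouse pot test in loam–sand soil mix: compound in a surfactant-containing non-phytotoxic solvent applied preemergence (directed soil spray) or postemergence (one- to two-leaf plants, 2–10 cm). Injury scored visually after ~10 days, 0–100.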

[6] = tested on: ragweed (common ragweed, Ambrosia elatior); assay: Test A preemergence, visual plant response rating; conditions: for Ragweed plant response rating: 125 g ai/ha, preemergence, 0 to 100 scale, 0 no effect, 100 complete control; for Ragweed plant response rating (0 to 100 scale): 500 g ai/ha Preemergence, approx. 10 days
Outline: as §2

[7] = tested on: Italian ryegrass (Lolium multiflorum); assay: Test A preemergence, visual plant response rating; conditions: for Ryegrass, Italian plant response rating: 125 g ai/ha, preemergence, 0 to 100 scale, 0 no effect, 100 complete control; for Ryegrass, Italian plant response rating (0 to 100 scale): 500 g ai/ha Preemergence, approx. 10 days
Outline: as §2

[8] = tested on: pigweed (Amaranthus retroflexus); assay: Test A preemergence, visual plant response rating; conditions: for Pigweed plant response rating: 125 g ai/ha, preemergence, 0 to 100 scale, 0 no effect, 100 complete control; for Pigweed plant response rating (0 to 100 scale): 500 g ai/ha Preemergence, approx. 10 days
Outline: as §2

[9] = tested on: foxtail, giant (giant foxtail, Setaria faberii); assay: Test A preemergence, visual plant response rating; conditions: for Foxtail, Giant plant response rating: 125 g ai/ha, preemergence, 0 to 100 scale, 0 no effect, 100 complete control; for Foxtail, Giant plant response rating (0 to 100 scale): 500 g ai/ha Preemergence, approx. 10 days
Outline: as §2

[10] = tested on: barnyardgrass (Echinochloa crus-galli); assay: Test A preemergence, visual plant response rating; conditions: for Barnyardgrass plant response rating: 125 g ai/ha, preemergence, 0 to 100 scale, 0 no effect, 100 complete control; for Barnyardgrass plant response rating (0 to 100 scale): 500 g ai/ha Preemergence, approx. 10 days
Outline: as §2

[11] = tested on: wheat (Triticum aestivum); assay: Test A postemergence, visual plant response rating; conditions: for Wheat plant response rating (0 to 100 scale): 500 g ai/ha, postemergence, 0 is no effect, 100 is complete control; for Wheat plant response rating: Postemergence, 125 g ai/ha, 0 to 100 scale (0 no effect, 100 complete control)
Outline: as §2

[12] = tested on: blackgrass (Alopecurus myosuroides); assay: Test A postemergence, visual plant response rating; conditions: for Blackgrass plant response rating (0 to 100 scale): 500 g ai/ha, postemergence, 0 is no effect, 100 is complete control; for Blackgrass plant response rating: Postemergence, 125 g ai/ha, 0 to 100 scale (0 no effect, 100 complete control)
Outline: as §2

[13] = tested on: galium (catchweed bedstraw, Galium aparine); assay: Test A postemergence, visual plant response rating; conditions: for Galium plant response rating (0 to 100 scale): 500 g ai/ha, postemergence, 0 is no effect, 100 is complete control; for Galium plant response rating: Postemergence, 125 g ai/ha, 0 to 100 scale (0 no effect, 100 complete control)
Outline: as §2

[14] = tested on: corn (Zea mays); assay: Test A postemergence, visual plant response rating; conditions: for Corn plant response rating (0 to 100 scale): 500 g ai/ha, postemergence, 0 is no effect, 100 is complete control; for Corn plant response rating: Postemergence, 125 g ai/ha, 0 to 100 scale (0 no effect, 100 complete control)
Outline: as §2

[15] = tested on: kochia (Kochia scoparia); assay: Test A postemergence, visual plant response rating; conditions: for Kochia plant response rating (0 to 100 scale): 500 g ai/ha, postemergence, 0 is no effect, 100 is complete control; for Kochia plant response rating: Postemergence, 125 g ai/ha, 0 to 100 scale (0 no effect, 100 complete control)
Outline: as §2

[16] = tested on: ragweed (common ragweed, Ambrosia elatior); assay: Test A postemergence, visual plant response rating; conditions: for Ragweed plant response rating (0 to 100 scale): 500 g ai/ha, postemergence, 0 is no effect, 100 is complete control; for Ragweed plant response rating: Postemergence, 125 g ai/ha, 0 to 100 scale (0 no effect, 100 complete control)
Outline: as §2

[17] = tested on: Italian ryegrass (Lolium multiflorum); assay: Test A postemergence, visual plant response rating; conditions: for Ryegrass, Italian plant response rating (0 to 100 scale): 500 g ai/ha, postemergence, 0 is no effect, 100 is complete control; for Ryegrass, Italian plant response rating: Postemergence, 125 g ai/ha, 0 to 100 scale (0 no effect, 100 complete control)
Outline: as §2

[18] = tested on: pigweed (Amaranthus retroflexus); assay: Test A postemergence, visual plant response rating; conditions: for Pigweed plant response rating (0 to 100 scale): 500 g ai/ha, postemergence, 0 is no effect, 100 is complete control; for Pigweed plant response rating: Postemergence, 125 g ai/ha, 0 to 100 scale (0 no effect, 100 complete control)
Outline: as §2

[19] = tested on: foxtail, giant (giant foxtail, Setaria faberii); assay: Test A postemergence, visual plant response rating; conditions: for Foxtail, Giant plant response rating (0 to 100 scale): 500 g ai/ha, postemergence, 0 is no effect, 100 is complete control; for Foxtail, Giant plant response rating: Postemergence, 125 g ai/ha, 0 to 100 scale (0 no effect, 100 complete control)
Outline: as §2

[20] = tested on: barnyardgrass (Echinochloa crus-galli); assay: Test A postemergence, visual plant response rating; conditions: for Barnyardgrass plant response rating (0 to 100 scale): 500 g ai/ha, postemergence, 0 is no effect, 100 is complete control; for Barnyardgrass plant response rating: Postemergence, 125 g ai/ha, 0 to 100 scale (0 no effect, 100 complete control)
Outline: as §2

SMILES | Plant response rating, Ducksalad (0 to 100 scale, 0 is no effect, 100 is complete control) [1] | Plant response rating, Rice (0 to 100 scale, 0 is no effect, 100 is complete control) [2] | Plant response rating, Barnyardgrass (0 to 100 scale, 0 is no effect, 100 is complete control) [3] | Plant response rating, Sedge, Umbrella (0 to 100 scale, 0 is no effect, 100 is complete control) [4] | Kochia plant response rating [5] | Kochia plant response rating (0 to 100 scale) [5] | Ragweed plant response rating [6] | Ragweed plant response rating (0 to 100 scale) [6] | Ryegrass, Italian plant response rating (0 to 100 scale) [7] | Pigweed plant response rating [8] | Pigweed plant response rating (0 to 100 scale) [8] | Foxtail, Giant plant response rating [9] | Foxtail, Giant plant response rating (0 to 100 scale) [9] | Barnyardgrass plant response rating [10] | Barnyardgrass plant response rating (0 to 100 scale) [10] | Wheat plant response rating (0 to 100 scale) [11] | Wheat plant response rating [11] | Blackgrass plant response rating (0 to 100 scale) [12] | Blackgrass plant response rating [12] | Galium plant response rating (0 to 100 scale) [13] | also measured
C=CCc1ccccc1C(=NOC)c1c(O)c(C)nn(C)c1=O [Compound 121] | 0 | 0 | 0 | 0 | 0 | 30 | 10 | 50 | 100 | 10 | 90 | 10 | 80 | 0 | 20 | 40 | 30 | 70 | 30 | 90 | Ryegrass, Italian plant response rating [7]: 50; Galium plant response rating [13]: 60; Corn plant response rating (0 to 100 scale) [14]: 10; Corn plant response rating [14]: 0; Kochia plant response rating (0 to 100 scale) [15]: 60; Kochia plant response rating [15]: 40; Ragweed plant response rating (0 to 100 scale) [16]: 70; Ragweed plant response rating [16]: 40; Ryegrass, Italian plant response rating (0 to 100 scale) [17]: 90; Ryegrass, Italian plant response rating [17]: 60; Pigweed plant response rating (0 to 100 scale) [18]: 70; Pigweed plant response rating [18]: 50; Foxtail, Giant plant response rating (0 to 100 scale) [19]: 60; Foxtail, Giant plant response rating [19]: 20; Barnyardgrass plant response rating (0 to 100 scale) [20]: 70; Barnyardgrass plant response rating [20]: 0
C=CCc1ccccc1C(=NOC)c1c(O)c(C)nn(C)c1=O [Compound 122] | 0 | 0 | 0 | 0 | 0 | 10 | 10 | 50 | 60 | 20 | 90 | 10 | 80 | 0 | 30 | 30 | 0 | 40 | 20 | 80 | Ryegrass, Italian plant response rating [7]: 50; Galium plant response rating [13]: 60; Corn plant response rating (0 to 100 scale) [14]: 10; Corn plant response rating [14]: 0; Kochia plant response rating (0 to 100 scale) [15]: 50; Kochia plant response rating [15]: 40; Ragweed plant response rating (0 to 100 scale) [16]: 60; Ragweed plant response rating [16]: 50; Ryegrass, Italian plant response rating (0 to 100 scale) [17]: 90; Ryegrass, Italian plant response rating [17]: 70; Pigweed plant response rating (0 to 100 scale) [18]: 70; Pigweed plant response rating [18]: 60; Foxtail, Giant plant response rating (0 to 100 scale) [19]: 70; Foxtail, Giant plant response rating [19]: 50; Barnyardgrass plant response rating (0 to 100 scale) [20]: 60; Barnyardgrass plant response rating [20]: 20
CON=C(c1cccc(C2CC2)c1)c1c(O)c(C)nn(C)c1=O [Compound 123] | 0 | 0 | 0 | 0 | 10 | 50 | 50 | 80 | 90 | 40 | 60 | 10 | 40 | 0 | 50 | 10 | 0 | 30 | 20 | 80 | Galium plant response rating [13]: 70; Corn plant response rating (0 to 100 scale) [14]: 0; Corn plant response rating [14]: 0; Kochia plant response rating (0 to 100 scale) [15]: 70; Kochia plant response rating [15]: 50; Ragweed plant response rating (0 to 100 scale) [16]: 90; Ragweed plant response rating [16]: 80; Ryegrass, Italian plant response rating (0 to 100 scale) [17]: 80; Ryegrass, Italian plant response rating [17]: 60; Pigweed plant response rating (0 to 100 scale) [18]: 80; Pigweed plant response rating [18]: 70; Foxtail, Giant plant response rating (0 to 100 scale) [19]: 60; Foxtail, Giant plant response rating [19]: 20; Barnyardgrass plant response rating (0 to 100 scale) [20]: 40; Barnyardgrass plant response rating [20]: 0
